Patent US10087167B2, “Benzofurans substituted with secondary benzamide as HCV inhibitors” (priority 2015, dated 2018)
pEC50: −log10 of the molar value.

Tests used:
[1] = test system: HCV replicon; experiment: HCV replicon luciferase assay; assay type: cell-based; details: Hepatitis C virus, Huh-7, 72 h
Procedure: The cell lines used to evaluate compounds consist of a human hepatocyte derived cell line (Huh-7) that constitutively expresses a genotype 1b (Con-1) HCV replicon or a genotype 1b (Con-1) HCV replicon with an asparagine replacing the cysteine at amino acid 316, or a genotype 2a (JFH-1) replicon, containing a Renilla luciferase reporter gene. These cells were maintained in Dulbecco's modified Eagle medium (DMEM) containing 10% FBS, 100 U/mL penicillin/streptomycin and 1.0 mg/mL G418.
To evaluate compound efficacy, titrated compounds were transferred to sterile 384-well tissue culture treated plates, and the plates were seeded with HCV replicon cells (50 μL at a density of 2.4×10^3 cells/well) in DMEM containing 4% FBS (final DMSO concentration at 0.5%). After 3 days incubation at 37° C., cells were analyzed for Renilla Luciferase activity using the EnduRen substrate (Promega cat #E6485) according to the manufacturer's directions. Briefly, the EnduRen substrate was diluted in DMEM and then added to the plates to a final concentration of 7.5 μM. The plates were incubated for at least 1 h at 37° C. then read on a Viewlux Imager (PerkinElmer) using a luminescence program. The 50% effective concentration (EC50) was calculated using the four-parameter logistic formula noted above.
Compound EC50 data is expressed as A: <100 nM; B=100-1000 nM; C>1000 nM).

[2] = test system: HCV; details: extended dosing of the combination regimens; cited from earlier work
[3] = test system: HCV; details: combination therapy; cited from earlier work

Molecule	pEC50 [1]	further results
CCN(CC)c1cc2oc(-c3ccc(F)cc3)c(C(=O)NC)c2cc1-c1cccc(C(=O)N2CC(F)(F)C2)c1 [Compound 1001]	7.34	
CCNc1cc2oc(-c3ccc(F)cc3)c(C(=O)NC)c2cc1-c1cccc(C(=O)N2CCNC(C#N)C2)c1 (stereo not shown) [Compound 2001]	6.00 to 7.00	
CCN(c1cc2oc(-c3ccc(F)cc3)c(C(=O)NC)c2cc1-c1cccc(C(=O)N2CCN(C(=O)OC(C)(C)C)C[C@@H]2C#N)c1)S(C)(=O)=O [Compound 3001]	> 7.00	
CCN(c1cc2oc(-c3ccc(F)cc3)c(C(=O)NC)c2cc1-c1cccc(C(=O)N2CCN(C(=O)OC(C)(C)C)C[C@H]2C#N)c1)S(C)(=O)=O [Compound 3002]	> 7.00	
CCN(c1cc2oc(-c3ccc(F)cc3)c(C(=O)NC)c2cc1-c1cccc(C(=O)N2CCN(S(C)(=O)=O)C(C#N)C2)c1)S(C)(=O)=O (stereo not shown) [Compound 3003]	7.60	
CNC(=O)c1c(-c2ccc(F)cc2)oc2cc(N(CCF)S(C)(=O)=O)c(-c3cccc(C(=O)N4CCN(C(=O)C(F)(F)F)CC4)c3)cc12 [Compound 4001]	< 6.00	
CNC(=O)c1c(-c2ccc(F)cc2)oc2cc(N(CCF)S(C)(=O)=O)c(-c3cccc(C(=O)N4CCN(C5CC5)CC4)c3)cc12 [Compound 4002]	> 7.00	
CNC(=O)c1c(-c2ccc(F)cc2)oc2cc(N(CCF)S(C)(=O)=O)c(-c3cccc(C(=O)N4CCN(c5ncccn5)CC4)c3)cc12 [Compound 4003]	> 7.00	
CNC(=O)c1c(-c2ccc(F)cc2)oc2cc(N(CCF)S(C)(=O)=O)c(-c3cccc(C(=O)N4CCN(C(=O)N5CCOCC5)CC4)c3)cc12 [Compound 4004]	5.77	
CNC(=O)c1c(-c2ccc(F)cc2)oc2cc(N(CCF)S(C)(=O)=O)c(-c3cccc(C(=O)N4CCN(C(=O)OC(C)(C)C)CC4CC(=O)OC)c3)cc12 (stereo not shown) [Compound 4005]	> 7.00	
CNC(=O)c1c(-c2ccc(F)cc2)oc2cc(N(CCF)S(C)(=O)=O)c(-c3cccc(C(=O)N4CCN(/C(=N/C#N)c5ccccc5)CC4)c3)cc12 [Compound 4006]	6.00 to 7.00	
CNC(=O)c1c(-c2ccc(F)cc2)oc2cc(N(CCF)S(C)(=O)=O)c(-c3cccc(C(=O)N4CCN(C(=C(C#N)C#N)c5ccccc5)CC4)c3)cc12 [Compound 4007]	> 7.00	
CNC(=O)c1c(-c2ccc(F)cc2)oc2cc(N(CCF)S(C)(=O)=O)c(-c3cccc(C(=O)N4CCN(c5nnnn5-c5ccccc5)CC4)c3)cc12 [Compound 4008]	6.97	
CNC(=O)c1c(-c2ccc(F)cc2)oc2cc(N(CCF)S(C)(=O)=O)c(-c3cccc(C(=O)N4CCN(c5nnnn5-c5ccccc5)C[C@@H]4C)c3)cc12 [Compound 4009]	> 7.00	
CNC(=O)c1c(-c2ccc(F)cc2)oc2cc(N(CCF)S(C)(=O)=O)c(-c3cccc(C(=O)N4CCN(c5nnnn5-c5ccccc5)[C@H](C)C4)c3)cc12 [Compound 4010]	> 7.00	
CNC(=O)c1c(-c2ccc(F)cc2)oc2cc(N(CCF)S(C)(=O)=O)c(-c3cccc(C(=O)N4CCC(=C(c5ccccc5)c5ccccc5)CC4)c3)cc12 [Compound 4011]	> 7.00	
CNC(=O)c1c(-c2ccc(F)cc2)oc2cc(N(CCF)S(C)(=O)=O)c(-c3cccc(C(=O)N4CCC(=C(c5ccccc5)c5nnc(C)o5)CC4)c3)cc12 [Compound 4012]	7.57	

Molecule	pEC50 [1]	further results
CNC(=O)c1c(-c2ccc(F)cc2)oc2cc(N(CCF)S(C)(=O)=O)c(-c3cccc(C(=O)N4CCC(=C(C#N)c5ccccc5)CC4)c3)cc12 [Compound 4013]	> 7.00	
CNC(=O)c1c(-c2ccc(F)cc2)oc2cc(N(CCF)S(C)(=O)=O)c(-c3cccc(C(=O)N4CCC(=C(C#N)c5ccccn5)CC4)c3)cc12 [Compound 4014]	> 7.00	
CNC(=O)c1c(-c2ccc(F)cc2)oc2cc(N(CCF)S(C)(=O)=O)c(-c3cccc(C(=O)N4CCCC4C(F)(F)F)c3)cc12 (stereo not shown) [Compound 4015]	> 7.00	
CNC(=O)c1c(-c2ccc(F)cc2)oc2cc(N(CCF)S(C)(=O)=O)c(-c3cccc(C(=O)N4CCCC4c4ccc(N(C)C)cc4)c3)cc12 (stereo not shown) [Compound 4016]	7.07	
CNC(=O)c1c(-c2ccc(F)cc2)oc2cc(N(CCF)S(C)(=O)=O)c(-c3cccc(C(=O)N4CCC[C@@H]4C(N)=O)c3)cc12 [Compound 4017]	< 6.00	
CNC(=O)c1c(-c2ccc(F)cc2)oc2cc(N(CCF)S(C)(=O)=O)c(-c3cccc(C(=O)N4CC(O)C[C@H]4C(=O)OCc4ccccc4)c3)cc12 (stereo partly shown) [Compound 4018]	6.00 to 7.00	
CNC(=O)c1c(-c2ccc(F)cc2)oc2cc(N(CCF)S(C)(=O)=O)c(-c3cccc(C(=O)N4CC(F)(F)C[C@H]4C(N)=O)c3)cc12 [Compound 4019]	< 6.00	
CNC(=O)c1c(-c2ccc(F)cc2)oc2cc(N(CCF)S(C)(=O)=O)c(-c3cccc(C(=O)N4CC[C@H](F)C4)c3)cc12 [Compound 4020]	7.35	
CNC(=O)c1c(-c2ccc(F)cc2)oc2cc(N(CCF)S(C)(=O)=O)c(-c3cccc(C(=O)N4CC[C@@H](C#N)C4)c3)cc12 [Compound 4021]	< 6.00	
CNC(=O)c1c(-c2ccc(F)cc2)oc2cc(N(CCF)S(C)(=O)=O)c(-c3cccc(C(=O)N4CCC(NC(=O)OC(C)(C)C)(C(F)(F)F)C4)c3)cc12 (stereo not shown) [Compound 4022]	> 7.00	
CNC(=O)c1c(-c2ccc(F)cc2)oc2cc(N(CCF)S(C)(=O)=O)c(-c3cccc(C(=O)N4CCCC4c4nccs4)c3)cc12 (stereo not shown) [Compound 4023]	> 7.00	
CNC(=O)c1c(-c2ccc(F)cc2)oc2cc(N(CCF)S(C)(=O)=O)c(-c3cccc(C(=O)N4CC[C@@H](F)C4)c3)cc12 [Compound 4024]	7.12	
CNC(=O)c1c(-c2ccc(F)cc2)oc2cc(N(CCF)S(C)(=O)=O)c(-c3cccc(C(=O)N4CC(F)(F)C(F)(F)C4)c3)cc12 [Compound 4025]	> 7.00	
CNC(=O)c1c(-c2ccc(F)cc2)oc2cc(N(CCF)S(C)(=O)=O)c(-c3cccc(C(=O)N4CCNC(=O)C45CCCC5)c3)cc12 [Compound 4026]	> 7.00	
CCOC(=O)CC1C(=O)NCCN1C(=O)c1cccc(-c2cc3c(C(=O)NC)c(-c4ccc(F)cc4)oc3cc2N(CCF)S(C)(=O)=O)c1 (stereo not shown) [Compound 4027]	< 6.00	
CNC(=O)c1c(-c2ccc(F)cc2)oc2cc(N(CCO)S(C)(=O)=O)c(C3CC3)cc12 [HCV-796]		hepatic toxicity [2]: hepatic toxicity observed
alpha-interferon and ribavirin		sustained efficacy [3]: 40 % of patients
